According to US8785457B2 (Cellzome Limited, priority 2009, dated 2014):
Like-named read-outs stand apart in the source and are kept apart here.

Experiments:
PI3Kalpha (PI3Ka) = target: T1, PI3Kalpha (PI3Ka) (Homo sapiens, UniProt P42336); test: kinobeads assay, PI3Kalpha; assay type: binding; conditions: for PI3Ka / IC50: Further Kinobeads Data; for IC50: read-out: PI3Ka; for Inhibition values (IC50) PI3Ka: kinobeads assay, Table 6
T1 construct: endogenous in cells; host or cells: cell lysate
How it was run: (§1)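 IC50s are fitted to per-kinase dose-response curves. Kinases retained on phenylmorpholin-chromen affinity beads are read by multiplexed immunodetection after elution. Compound, added at a range of concentrations straight into cell lysate, competes for this bead capture.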

PI3 Kbeta (PI3 Kb) = target: T2, PI3 Kbeta (PI3 Kb) (Homo sapiens, UniProt P42338); test: kinobeads assay, PI3Kbeta; assay type: binding
T2 construct: endogenous in cells; host or cells: cell lysate
How it was run: as §1

PI3 Kgamma (PI3 Kg) = target: T3, PI3 Kgamma (PI3 Kg) (Homo sapiens, UniProt P48736); test: kinobeads assay, PI3Kgamma; assay type: binding
T3 construct: endogenous in cells; host or cells: cell lysate
How it was run: as §1

[1] = tested on: S6RP serine-240/244 phosphorylation; test: In vitro Phospho-S6 cellular assay (pS6RP S240/244) in HEK293T/17 cells; assay type: cell-based; conditions: Homo sapiens, 2 hours, read-out: pS6 IC50
How it was run: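 Compounds were tested at eight concentrations on adhered HEK293T/17 cells for 2 h at 37 °C (2% FCS, 0.1% DMSO), at 80,000 cells/well for pAkt S473 and 40,000 for pS6RP S240/244. Lysates were captured on phospho-specific antibody MSD plates with Sulfo-Tag detection. Values came from nonlinear variable-slope regression.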

[2] = Further Kinobeads Data, read-out: PI3Kb
[3] = Further Kinobeads Data, read-out: PI3Kg
[4] = kinobeads assay, Table 6, read-out: Inhibition values (IC50) PI3Kb
[5] = kinobeads assay, Table 6, read-out: Inhibition values (IC50) PI3Kg

T2 sequence (P42338 whole entry): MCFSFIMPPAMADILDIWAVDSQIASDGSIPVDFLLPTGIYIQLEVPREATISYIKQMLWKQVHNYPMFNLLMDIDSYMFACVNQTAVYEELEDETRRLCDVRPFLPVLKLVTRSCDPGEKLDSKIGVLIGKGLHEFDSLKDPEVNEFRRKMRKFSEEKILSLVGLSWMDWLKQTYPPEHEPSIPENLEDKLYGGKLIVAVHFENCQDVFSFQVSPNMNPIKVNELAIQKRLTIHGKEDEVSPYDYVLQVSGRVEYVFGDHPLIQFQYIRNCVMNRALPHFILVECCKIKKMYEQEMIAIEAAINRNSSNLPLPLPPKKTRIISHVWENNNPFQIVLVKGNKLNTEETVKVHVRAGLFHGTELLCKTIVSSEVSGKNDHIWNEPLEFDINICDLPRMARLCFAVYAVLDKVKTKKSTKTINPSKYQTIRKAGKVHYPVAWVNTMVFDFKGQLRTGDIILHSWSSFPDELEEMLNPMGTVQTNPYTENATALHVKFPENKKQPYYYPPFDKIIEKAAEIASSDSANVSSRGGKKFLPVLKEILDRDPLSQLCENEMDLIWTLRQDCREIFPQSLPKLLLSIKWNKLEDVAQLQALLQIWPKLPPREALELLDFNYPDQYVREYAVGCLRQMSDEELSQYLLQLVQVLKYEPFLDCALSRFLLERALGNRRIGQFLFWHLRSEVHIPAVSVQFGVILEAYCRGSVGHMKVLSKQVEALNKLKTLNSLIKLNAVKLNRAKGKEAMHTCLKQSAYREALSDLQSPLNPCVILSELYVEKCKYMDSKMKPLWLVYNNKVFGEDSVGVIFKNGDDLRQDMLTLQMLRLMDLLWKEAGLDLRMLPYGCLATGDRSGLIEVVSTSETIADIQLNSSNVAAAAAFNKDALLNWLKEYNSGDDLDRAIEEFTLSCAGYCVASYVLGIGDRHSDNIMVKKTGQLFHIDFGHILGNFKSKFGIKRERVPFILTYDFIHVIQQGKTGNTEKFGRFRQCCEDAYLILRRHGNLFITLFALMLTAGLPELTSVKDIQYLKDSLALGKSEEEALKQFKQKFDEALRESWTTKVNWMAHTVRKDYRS
T2 sequence (P27986 whole entry partner): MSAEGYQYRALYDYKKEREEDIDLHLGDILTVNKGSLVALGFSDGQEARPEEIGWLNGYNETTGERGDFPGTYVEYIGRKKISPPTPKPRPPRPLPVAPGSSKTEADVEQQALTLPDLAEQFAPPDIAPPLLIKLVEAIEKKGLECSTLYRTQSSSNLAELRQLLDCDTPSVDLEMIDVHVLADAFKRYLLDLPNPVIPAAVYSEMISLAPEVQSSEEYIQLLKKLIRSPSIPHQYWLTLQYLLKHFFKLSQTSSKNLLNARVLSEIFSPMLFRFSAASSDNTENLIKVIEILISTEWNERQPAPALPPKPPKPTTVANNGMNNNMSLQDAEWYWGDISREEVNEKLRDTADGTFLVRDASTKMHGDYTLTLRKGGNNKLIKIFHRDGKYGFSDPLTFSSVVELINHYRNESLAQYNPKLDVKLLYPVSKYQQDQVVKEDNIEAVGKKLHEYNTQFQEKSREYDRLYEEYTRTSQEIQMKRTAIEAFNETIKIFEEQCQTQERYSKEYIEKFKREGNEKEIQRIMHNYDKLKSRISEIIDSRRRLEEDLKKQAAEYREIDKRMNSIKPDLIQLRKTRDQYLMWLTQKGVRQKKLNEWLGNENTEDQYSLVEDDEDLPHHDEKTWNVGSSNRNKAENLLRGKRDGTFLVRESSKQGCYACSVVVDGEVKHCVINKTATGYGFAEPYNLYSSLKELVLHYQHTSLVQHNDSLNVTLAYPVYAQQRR
T1 sequence (P42336 whole entry): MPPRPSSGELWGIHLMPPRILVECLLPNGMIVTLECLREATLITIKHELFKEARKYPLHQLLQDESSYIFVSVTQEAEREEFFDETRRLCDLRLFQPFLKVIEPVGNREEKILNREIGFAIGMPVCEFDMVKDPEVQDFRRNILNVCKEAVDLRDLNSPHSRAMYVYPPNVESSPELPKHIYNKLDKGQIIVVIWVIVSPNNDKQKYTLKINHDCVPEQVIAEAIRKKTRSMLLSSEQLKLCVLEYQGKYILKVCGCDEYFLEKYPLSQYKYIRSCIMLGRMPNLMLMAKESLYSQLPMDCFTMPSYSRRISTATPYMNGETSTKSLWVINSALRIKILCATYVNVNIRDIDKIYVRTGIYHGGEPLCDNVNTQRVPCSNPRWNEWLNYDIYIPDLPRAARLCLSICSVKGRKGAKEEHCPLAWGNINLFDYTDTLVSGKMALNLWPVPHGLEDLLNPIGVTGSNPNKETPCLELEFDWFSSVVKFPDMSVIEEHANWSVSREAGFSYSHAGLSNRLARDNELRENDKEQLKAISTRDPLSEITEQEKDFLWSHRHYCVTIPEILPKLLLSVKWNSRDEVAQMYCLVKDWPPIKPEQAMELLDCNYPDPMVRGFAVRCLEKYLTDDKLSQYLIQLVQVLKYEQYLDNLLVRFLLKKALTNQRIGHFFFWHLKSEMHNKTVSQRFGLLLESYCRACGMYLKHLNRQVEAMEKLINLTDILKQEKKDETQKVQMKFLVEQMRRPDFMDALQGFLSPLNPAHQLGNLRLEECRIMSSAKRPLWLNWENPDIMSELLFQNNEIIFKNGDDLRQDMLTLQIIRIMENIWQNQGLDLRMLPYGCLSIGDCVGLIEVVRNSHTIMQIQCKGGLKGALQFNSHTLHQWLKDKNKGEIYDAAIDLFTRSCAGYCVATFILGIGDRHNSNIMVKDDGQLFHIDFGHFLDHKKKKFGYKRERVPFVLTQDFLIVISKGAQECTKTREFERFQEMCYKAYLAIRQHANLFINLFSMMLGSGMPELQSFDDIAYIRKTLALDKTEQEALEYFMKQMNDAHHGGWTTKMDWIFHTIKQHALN
T1 sequence (P27986 whole entry partner): as the sequence (P27986 whole entry partner) above
T3 sequence (P48736 whole entry): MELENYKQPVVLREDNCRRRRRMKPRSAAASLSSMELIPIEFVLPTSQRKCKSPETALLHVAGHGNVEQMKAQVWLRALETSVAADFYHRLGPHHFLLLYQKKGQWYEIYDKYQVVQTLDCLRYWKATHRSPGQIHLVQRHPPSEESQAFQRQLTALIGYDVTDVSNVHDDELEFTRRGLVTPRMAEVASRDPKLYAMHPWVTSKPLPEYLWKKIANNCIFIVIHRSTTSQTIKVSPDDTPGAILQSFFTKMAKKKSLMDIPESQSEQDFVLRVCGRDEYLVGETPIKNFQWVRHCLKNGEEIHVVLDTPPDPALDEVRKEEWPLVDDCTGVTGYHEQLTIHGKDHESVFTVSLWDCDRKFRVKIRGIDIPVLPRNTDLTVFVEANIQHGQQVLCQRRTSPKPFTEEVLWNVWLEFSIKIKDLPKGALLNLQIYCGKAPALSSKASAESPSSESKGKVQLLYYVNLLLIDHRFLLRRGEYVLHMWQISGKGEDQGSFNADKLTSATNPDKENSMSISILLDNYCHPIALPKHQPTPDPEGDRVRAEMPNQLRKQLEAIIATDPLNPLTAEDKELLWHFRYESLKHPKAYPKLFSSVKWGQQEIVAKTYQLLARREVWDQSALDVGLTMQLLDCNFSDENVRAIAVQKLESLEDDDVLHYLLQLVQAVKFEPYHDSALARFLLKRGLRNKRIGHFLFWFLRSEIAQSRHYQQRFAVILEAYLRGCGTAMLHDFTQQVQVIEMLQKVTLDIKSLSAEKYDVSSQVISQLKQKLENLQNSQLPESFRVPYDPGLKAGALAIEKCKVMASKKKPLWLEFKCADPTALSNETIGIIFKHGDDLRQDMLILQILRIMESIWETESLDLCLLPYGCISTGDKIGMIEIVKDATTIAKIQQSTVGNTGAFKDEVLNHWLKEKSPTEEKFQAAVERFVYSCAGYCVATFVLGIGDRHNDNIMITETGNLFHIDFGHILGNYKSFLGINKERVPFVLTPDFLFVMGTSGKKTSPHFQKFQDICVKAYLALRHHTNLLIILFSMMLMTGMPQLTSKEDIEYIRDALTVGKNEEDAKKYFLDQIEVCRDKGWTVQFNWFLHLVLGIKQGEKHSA

| Structure (SMILES) | PI3Ka (PI3Kalpha (PI3Ka)) | IC50 (PI3 Kbeta (PI3 Kb); [2]) [nM] | IC50 (PI3 Kgamma (PI3 Kg); [3]) [nM] | IC50 [1] [nM] | IC50 (PI3Kalpha (PI3Ka)) [nM] | Inhibition values (IC50) PI3Ka (PI3Kalpha (PI3Ka)) | IC50 (PI3 Kbeta (PI3 Kb); [4]) [nM] | IC50 (PI3 Kgamma (PI3 Kg); [5]) [nM] |
| --- | --- | --- | --- | --- | --- | --- | --- | --- |
| CCNC(=O)Nc1ccc(-c2nc3c(c(N4CCOC[C@@H]4C)n2)CN(C(=O)OC)C3)c(F)c1 [Example 152, (S)-methyl 2-(4-(3-ethylureido)-2-fluorophenyl)-4-(3-methylmorpholino)-5H-pyrrolo[3,4-d]pyrimidine-6-(7H)-carboxylate] | D (D >10 μM) | > 10000 | > 10000 | 93 | – | – | – | – |
| C[C@H]1COCCN1c1nc(-c2ccc(NC(=O)NC3CC3)cc2F)nc2c1CCN(C(=O)N(C)C)C2 [Example 165, (S)-2-(4-(3-cyclopropylureido)-2-fluorophenyl)-N,N-dimethyl-4-(3-methylmorpholino)-5,6-dihydropyrido[3,4-d]pyrimidine-7(8H)-carboxamide] | D (D >10 μM) | > 10000 | > 10000 | 45 | – | – | – | – |
| CCOC(=O)N1Cc2nc(-c3ccc(NC(=O)NC4CC4)cc3)nc(N3CCOC[C@@H]3C)c2C1 [Example 34, (S)-ethyl 2-(4-(3-cyclopropylureido)phenyl)-4-(3-methylmorpholino)-5H-pyrrolo[3,4-d]pyrimidine-6(7H)-carboxylate] | – | – | – | 49 | – | D (D >10 μM) | > 10000 | > 10000 |
| CCNC(=O)Nc1cc(F)c(-c2nc3c(c(N4CCOC[C@@H]4C)n2)CN(C(=O)OCC)C3)cc1F [Example 141, (S)-ethyl 2-(4-(3-ethylureido)-2,5-difluorophenyl)-4-(3-methylmorpholino)-5H-pyrrolo[3,4-d]pyrimidine-6(7H)-carboxylate] | D (D >10 μM) | > 10000 | > 10000 | 838 | – | – | – | – |
| COC(=O)N1Cc2nc(-c3ccc(NC(=O)NC4CC4)cc3F)nc(N3CCOC[C@H]3C)c2C1 [Example 180, (R)-methyl 2-(4-(3-cyclopropylureido)-2-fluorophenyl)-4-(3-methylmorpholino)-5H-pyrrolo[3,4-d]pyrimidine-6(7H)-carboxylate] | D (D >10 μM) | > 10000 | > 10000 | 58 | – | – | – | – |
| COC(=O)N1Cc2nc(-c3ccc(NC(=O)NC4CC4)cc3F)nc(N3CCOC[C@@H]3C)c2C1 [Example 146, (S)-methyl 2-(4-(3-cyclopropylureido)-2-fluorophenyl)-4-(3-methylmorpholino)-5H-pyrrolo[3,4-d]pyrimidine-6(7H)-carboxylate] | D (D >10 μM) | > 10000 | > 10000 | 96 | – | – | – | – |
| CC(C)N1Cc2nc(-c3ccc(NC(=O)NCCO)cc3F)nc(N3CCOC[C@@H]3C)c2C1 [Example 187, (S)-1-(3-fluoro-4-(6-isopropyl-4-(3-methylmorpholino)-6,7-dihydro-5H-pyrrolo[3,4-d]pyrimidin-2-yl)phenyl)-3-(2-hydroxyethyl)urea] | D (D >10 μM) | > 10000 | > 10000 | 563 | – | – | – | – |
| C[C@@H]1COCCN1c1nc(-c2ccc(NC(=O)NC3CC3)cc2F)nc2c1CN(S(C)(=O)=O)C2 [Example 191, (R)-1-cyclopropyl-3-(3-fluoro-4-(4-(3-methylmorpholino)-6-(methylsulfonyl)-6,7-dihydro-5H-pyrrolo[3,4-d]pyrimidin-2-yl)phenyl)urea] | D (D >10 μM) | > 10000 | > 10000 | 180 | – | – | – | – |
| CC(C)CN1CCc2c(nc(-c3ccc(NC(=O)NC4CC4)cc3)nc2N2CCOC[C@@H]2C)C1 [Example 42, (S)-1-cyclopropyl-3-(4-(7-isobutyl-4-(3-methylmorpholino)-5,6,7,8-tetrahydropyrido[3,4-d]pyrimidin-2-yl)phenyl)urea] | – | – | – | 104 | – | D (D >10 μM) | > 10000 | > 10000 |
| CCOC(=O)N1Cc2nc(-c3ccc(NC(=O)NCCO)cc3F)nc(N3CCOCC3)c2C1 [Example 171, ethyl 2-(2-fluoro-4-(3-(2-hydroxyethyl)ureido)phenyl)-4-morpholino-5H-pyrrolo[3,4-d]pyrimidine-6(7H)-carboxylate] | D (D >10 μM) | > 10000 | > 10000 | 983 | – | – | – | – |

Further compounds by falling IC50 [1], results first:

| PI3Ka (PI3Kalpha (PI3Ka)) | IC50 (PI3 Kbeta (PI3 Kb); [2]) [nM] | IC50 (PI3 Kgamma (PI3 Kg); [3]) [nM] | IC50 [1] [nM] | IC50 (PI3Kalpha (PI3Ka)) [nM] | Inhibition values (IC50) PI3Ka (PI3Kalpha (PI3Ka)) | IC50 (PI3 Kbeta (PI3 Kb); [4]) [nM] | IC50 (PI3 Kgamma (PI3 Kg); [5]) [nM] | Structure (SMILES) |
| --- | --- | --- | --- | --- | --- | --- | --- | --- |
| D (D >10 μM) | > 10000 | > 10000 | 815 | – | – | – | – | CC(=O)N1Cc2nc(-c3ccc(NC(=O)NC4CC4)cc3F)nc(N3CCOC[C@@H]3C)c2C1 [Example 155, (S)-1-(4-(6-acetyl-4-(3-methylmorpholino)-6,7-dihydro-5H-pyrrolo[3,4-d]pyrimidin-2-yl)-3-fluorophenyl)-3-cyclopropylurea] |
| D (D >10 μM) | 1000 to 10000 | > 10000 | 615 | – | – | – | – | CCOC(=O)N1Cc2nc(-c3ccc(NC(=O)NCCO)cc3F)nc(N3CCOC[C@@H]3C)c2C1 [Example 167, (S)-Ethyl 2-(2-fluoro-4-(3-(2-hydroxyethyl)ureido)phenyl)-4-(3-methylmorpholino)-5H-pyrrolo[3,4-d]pyrimidine-6(7H)-carboxylate] |
| D (D >10 μM) | > 10000 | > 10000 | 410 | – | – | – | – | C[C@H]1COCCN1c1nc(-c2ccc(NC(=O)NC3CC3)cc2F)nc2c1CN(S(C)(=O)=O)C2 [Example 177, (S)-1-cyclopropyl-3-(3-fluoro-4-(4-(3-methylmorpholino)-6-(methylsulfonyl)-6,7-dihydro-5H-pyrrolo[3,4-d]pyrimidin-2-yl)phenyl)urea] |
| D (D >10 μM) | > 10000 | > 10000 | 405 | – | – | – | – | C[C@H]1COCCN1c1nc(-c2ccc(NC(=O)NC3CC3)cc2F)nc2c1CCNC2 [Example 163, (S)-1-cyclopropyl-3-(3-fluoro-4-(4-(3-methylmorpholino)-5,6,7,8-tetrahydropyrido[3,4-d]pyrimidin-2-yl)phenyl)urea] |
| D (D >10 μM) | > 10000 | > 10000 | 355 | – | – | – | – | CCNC(=O)Nc1ccc(-c2nc3c(c(N4CCOC[C@@H]4C)n2)CN(C)C3)c(F)c1 [Example 160, (S)-1-ethyl-3-(3-fluoro-4-(6-methyl-4-(3-methylmorpholino)-6,7-dihydro-5H-pyrrolo[3,4-d]pyrimidin-2-yl)phenyl)urea] |
| D (D >10 μM) | > 10000 | > 10000 | 282 | – | – | – | – | C[C@H]1COCCN1c1nc(-c2ccc(NC(=O)NC3CC3)cc2F)nc2c1CN(C)C2 [Example 147, (S)-1-cyclopropyl-3-(3-fluoro-4-(6-methyl-4-(3-methylmorpholino)-6,7-dihydro-5H-pyrrolo[3,4-d]pyrimidin-2-yl)phenyl)urea] |
| D (D >10 μM) | > 10000 | > 10000 | 197 | – | – | – | – | CC(C)N1Cc2nc(-c3ccc(NC(=O)NCCF)cc3F)nc(N3CCOC[C@@H]3C)c2C1 [Example 186, (S)-1-(3-fluoro-4-(6-isopropyl-4-(3-methylmorpholino)-6,7-dihydro-5H-pyrrolo[3,4-d]pyrimidin-2-yl)phenyl)-3-(2-fluoroethyl)urea] |
| – | > 10000 | 1000 to 10000 | 187 | 1000 to 10000 | – | – | – | CC(C)N1Cc2nc(-c3ccc(NC(=O)NC4CC4)cc3F)nc(N3CCOC[C@@H]3C)c2C1 [Example 172, (S)-1-cyclopropyl-3-(3-fluoro-4-(6-isopropyl-4-(3-methylmorpholino)-6,7-dihydro-5H-pyrrolo[3,4-d]pyrimidin-2-yl)phenyl)urea] |
| – | > 10000 | 1000 to 10000 | 153 | 1000 to 10000 | – | – | – | CCNC(=O)Nc1ccc(-c2nc3c(c(N4CCOCC4)n2)CN(C(=O)OCC)C3)c(F)c1 [Example 151, Ethyl 2-(4-(3-ethylureido)-2-fluorophenyl)-4-morpholino-5H-pyrrolo[3,4-d]pyrimidine-6(7H)-carboxylate] |
| – | – | – | 130 | – | D (D >10 μM) | > 10000 | > 10000 | CCNC(=O)Nc1ccc(-c2nc3c(c(N4CCOC[C@@H]4C)n2)CN(Cc2ccc(F)cc2)C3)cc1 [Example 29, (S)-1-ethyl-3-(4-(6-(4-fluorobenzyl)-4-(3-methylmorpholino)-6,7-dihydro-5H-pyrrolo[3,4-d]pyrimidin-2-yl)phenyl)urea] |
| – | > 10000 | > 10000 | 97 | 1000 to 10000 | – | – | – | CCOC(=O)N1Cc2nc(-c3ccc(NC(=O)NCCF)cc3F)nc(N3CCOC[C@@H]3C)c2C1 [Example 168, (S)-ethyl 2-(2-fluoro-4-(3-(2-fluoroethyl)ureido)phenyl)-4-(3-methylmorpholino)-5H-pyrrolo[3,4-d]pyrimidine-6(7H)-carboxylate] |
| – | – | – | 86 | – | D (D >10 μM) | > 10000 | > 10000 | CCNC(=O)Nc1ccc(-c2nc3c(c(N4CCOC[C@@H]4C)n2)CCN(CC2CC2)C3)cc1 [Example 37, (S)-1-(4-(7-(cyclopropylmethyl)-4-(3-methylmorpholino)-5,6,7,8-tetrahydropyrido[3,4-d]pyrimidin-2-yl)phenyl)-3-ethylurea] |
| D (D >10 μM) | > 10000 | > 10000 | 60 | – | – | – | – | COC(=O)N1Cc2nc(-c3ccc(NC(=O)NCCF)cc3F)nc(N3CCOC[C@@H]3C)c2C1 [Example 183, (S)-methyl 2-(2-fluoro-4-(3-(2-fluoroethyl)ureido)phenyl)-4-(3-methylmorpholino)-5H-pyrrolo[3,4-d]pyrimidine-6(7H)-carboxylate] |
